Like-named read-outs stand apart in the source and are kept apart here.
Legend:
ROCK1 = molecular target: T1, ROCK1 (Homo sapiens, UniProt Q13464); assay: Rho kinase inhibition assay (IMAP fluorescence polarization), ROCK1; format: biochemical
T1 construct: purchased Upstate/Chemicon 14-601
Description: (§1) Following the pre-incubation, 10 μM ATP was added to initiate the reaction. After 60 minutes at room temperature, Molecular Devices IMAP™ binding solution was added to bind phosphorylated substrate. After 30 minutes of incubation in the presence of the IMAP™ beads, the fluorescence polarization was read and the ratio was reported as mP.

ROCK2 = molecular target: T2, ROCK2 (Homo sapiens, UniProt O75116); assay: Rho kinase inhibition assay (IMAP fluorescence polarization), ROCK2; format: biochemical; settings: 10 μM ATP, 60 min at room temperature
T2 construct: purchased Upstate/Chemicon 14-451
T2 sequence (O75116 whole entry): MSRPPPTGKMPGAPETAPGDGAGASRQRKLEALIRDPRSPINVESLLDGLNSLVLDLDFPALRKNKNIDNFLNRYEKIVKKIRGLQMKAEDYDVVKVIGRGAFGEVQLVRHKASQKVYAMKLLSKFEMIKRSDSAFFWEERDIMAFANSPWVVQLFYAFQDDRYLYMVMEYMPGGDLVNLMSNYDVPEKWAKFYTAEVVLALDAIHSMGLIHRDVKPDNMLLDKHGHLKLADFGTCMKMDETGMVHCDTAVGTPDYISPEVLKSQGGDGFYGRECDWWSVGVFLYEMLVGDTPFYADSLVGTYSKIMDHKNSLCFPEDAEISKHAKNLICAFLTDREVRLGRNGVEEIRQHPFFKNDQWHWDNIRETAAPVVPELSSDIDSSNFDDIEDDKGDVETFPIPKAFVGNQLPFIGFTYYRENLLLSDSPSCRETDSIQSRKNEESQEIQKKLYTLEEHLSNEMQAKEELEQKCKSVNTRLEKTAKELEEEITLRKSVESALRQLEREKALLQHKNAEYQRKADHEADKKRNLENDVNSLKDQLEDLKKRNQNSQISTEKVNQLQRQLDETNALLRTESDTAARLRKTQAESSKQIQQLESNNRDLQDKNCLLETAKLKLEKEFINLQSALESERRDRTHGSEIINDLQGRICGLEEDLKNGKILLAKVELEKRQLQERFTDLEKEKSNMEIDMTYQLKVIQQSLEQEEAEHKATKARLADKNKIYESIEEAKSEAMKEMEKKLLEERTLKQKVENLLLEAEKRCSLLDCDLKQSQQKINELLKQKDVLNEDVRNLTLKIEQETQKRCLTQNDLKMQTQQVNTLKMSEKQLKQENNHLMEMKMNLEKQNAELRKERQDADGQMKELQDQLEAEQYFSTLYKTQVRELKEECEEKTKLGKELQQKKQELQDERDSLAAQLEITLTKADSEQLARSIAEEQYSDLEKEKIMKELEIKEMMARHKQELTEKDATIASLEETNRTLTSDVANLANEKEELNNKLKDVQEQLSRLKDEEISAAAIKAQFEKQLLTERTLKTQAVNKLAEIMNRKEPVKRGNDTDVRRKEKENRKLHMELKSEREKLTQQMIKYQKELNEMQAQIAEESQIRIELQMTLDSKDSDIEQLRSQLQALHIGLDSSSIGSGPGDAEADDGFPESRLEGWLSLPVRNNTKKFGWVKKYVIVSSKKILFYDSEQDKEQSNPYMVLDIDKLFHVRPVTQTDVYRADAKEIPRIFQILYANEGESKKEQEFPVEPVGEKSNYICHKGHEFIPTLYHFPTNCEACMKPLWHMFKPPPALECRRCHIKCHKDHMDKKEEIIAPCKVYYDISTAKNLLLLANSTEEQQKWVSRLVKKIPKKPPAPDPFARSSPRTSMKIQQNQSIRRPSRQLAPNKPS
Description: as §1, with “(Molecular Devices product number R7184) was pre-incubated with a test compound for 5 minutes in buffer containing 10 mM Tris-HCl pH 7.2, 10 mM MgCl2, and 0.1% BSA. Following” for “Following”
See Tian et al., Arch. Ophthalmol. […] Ophthalmol. Vis. […] Ophthalmol. […] Cytoskel. […] Ophthalmol. Vis. […] Ophthalmol. Vis.

[1] = Ocular surface and aqueous humor bioavailability; format: in vivo, New Zealand White rabbits; settings: New Zealand White, rabbit, topical, 30 μl of 1 mM (0.04% w/v) per eye
Description: Dose Formulation and Administration. Compounds 14 (prodrug) and 49 (base compound) were formulated at 0.04% w/v (the equivalent millimolar concentration is 1 mM) in 10 mM phosphate, 0.8% polysorbate 80, 0.85% NaCl, 0.01% BAC, 0.1% EDTA at pH 7.3. Each compound was administered as a 30 μl drop to both eyes of each animal within a dosing group and the ocular and systemic exposure was examined as described in Example 49.
Study sampling. 40 μL of saline was applied to the eyes at 0.083, 1, 2, and 4 hours after administration of each compound and the lavage fluids were collected as samples. Aqueous humor and ocular surface samples were obtained from 2 animals (4 eyes) per dosing group at 0.083, 1, 2, and 4 hours post dosing, by the methods described in Example 49. Ocular surface relates to the surface of the cornea and conjunctiva. Ocular surface residence time is the average time that a compound resides on the ocular surface.

[2] = 10 μM ATP, 60 min at room temperature, read-out: ROCK1 IC50
[3] = ocular surface (saline lavage fluid)

T1 sequence (Q13464 whole entry): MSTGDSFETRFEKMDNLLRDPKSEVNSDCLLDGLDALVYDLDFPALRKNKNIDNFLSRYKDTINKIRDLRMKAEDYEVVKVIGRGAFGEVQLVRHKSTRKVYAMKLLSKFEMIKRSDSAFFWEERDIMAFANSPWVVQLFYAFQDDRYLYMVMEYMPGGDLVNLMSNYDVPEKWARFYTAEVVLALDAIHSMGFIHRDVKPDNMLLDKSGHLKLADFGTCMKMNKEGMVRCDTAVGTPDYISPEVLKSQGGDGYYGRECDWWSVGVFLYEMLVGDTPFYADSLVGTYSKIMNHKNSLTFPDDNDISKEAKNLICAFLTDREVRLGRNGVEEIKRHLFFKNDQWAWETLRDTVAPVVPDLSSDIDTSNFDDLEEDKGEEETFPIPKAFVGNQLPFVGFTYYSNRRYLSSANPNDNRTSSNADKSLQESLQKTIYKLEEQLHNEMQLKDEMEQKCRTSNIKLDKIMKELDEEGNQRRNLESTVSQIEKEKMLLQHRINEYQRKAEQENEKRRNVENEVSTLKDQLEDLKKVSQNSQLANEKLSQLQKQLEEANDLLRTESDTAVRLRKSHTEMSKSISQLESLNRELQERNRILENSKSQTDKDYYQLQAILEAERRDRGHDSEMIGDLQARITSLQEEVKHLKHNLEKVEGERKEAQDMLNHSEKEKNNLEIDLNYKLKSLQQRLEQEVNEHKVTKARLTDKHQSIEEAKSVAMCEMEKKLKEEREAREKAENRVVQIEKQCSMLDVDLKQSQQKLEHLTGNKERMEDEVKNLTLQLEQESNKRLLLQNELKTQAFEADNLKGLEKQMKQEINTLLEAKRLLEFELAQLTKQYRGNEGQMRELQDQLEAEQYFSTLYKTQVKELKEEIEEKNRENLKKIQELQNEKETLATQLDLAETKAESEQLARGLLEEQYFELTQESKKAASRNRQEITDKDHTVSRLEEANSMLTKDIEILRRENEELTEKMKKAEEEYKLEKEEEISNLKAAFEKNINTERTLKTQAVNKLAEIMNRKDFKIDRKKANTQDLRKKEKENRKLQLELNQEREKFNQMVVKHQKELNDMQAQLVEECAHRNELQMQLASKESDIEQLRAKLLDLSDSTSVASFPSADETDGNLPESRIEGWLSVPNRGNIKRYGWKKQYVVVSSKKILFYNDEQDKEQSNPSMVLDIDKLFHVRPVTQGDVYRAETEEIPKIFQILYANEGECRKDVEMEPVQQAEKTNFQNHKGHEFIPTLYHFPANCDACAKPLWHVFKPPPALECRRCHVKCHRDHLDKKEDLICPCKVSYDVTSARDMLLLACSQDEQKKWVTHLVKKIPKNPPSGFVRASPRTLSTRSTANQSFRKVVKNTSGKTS

| IC50 (ROCK1) [nM] | IC50 (ROCK2) [nM] | IC50 (ROCK1; [2]) [nM] | Compound | other results |
| --- | --- | --- | --- | --- |
| 5390 | 451 |  | CC(=O)NCCOc1cccc(CN2CCC[C@H](Nc3ccc4[nH]ncc4c3)C2)c1 [Compound 30, N-(2-(3-(((S)-3-(1H-indazol-5-ylamino)piperidin-1-yl)methyl)phenoxy)ethyl) acetamide] |  |
| 3440 | 251 |  | CC(C)(C)OC(=O)COc1cccc(CN2CCC[C@H](Nc3ccc4[nH]ncc4c3)C2)c1 [Compound 27, tert-Butyl 2-(3-(((S)-3-(1H-indazol-5-ylamino)piperidin-1-yl)methyl)phenoxy) acetate] |  |
| 1030 | 109 |  | CCOC(=O)COc1cccc(CN2CCC[C@H](Nc3ccc4[nH]ncc4c3)C2)c1 [Compound 28] |  |
|  | 1050 | 3060 | CC1(C(=O)OCCOc2cccc(CN3CC[C@@H](Nc4cccc5cnccc45)C3)c2)CC1 [Compound 19, 2-(3-(((R)-3-(isoquinolin-5-ylamino)pyrrolidin-1-yl)methyl)phenoxy)ethyl 1-methylcyclopropanecarboxylate] |  |
|  | 87 |  | CCOC(=O)COc1cccc(CN2CCCC(Nc3ccc4[nH]ncc4c3)C2)c1 (stereo not drawn) [Compound 41, Ethyl 2-(3-((3-(1H-indazol-5-ylamino)piperidin-1-yl)methyl)phenoxy)acetate] |  |
| 5160 | 987 |  | CC(=O)NCCOc1cccc(CN2CCC[C@@H](Nc3ccc4[nH]ncc4c3)C2)c1 [Compound 29, N-(2-(3-(((R)-3-(1H-indazol-5-ylamino)piperidin-1-yl)methyl)phenoxy)ethyl) acetamide] |  |
| 117000 | 6190 |  | CCOC(=O)c1ccc(CN2CCC[C@@H](Nc3ccc4[nH]ncc4c3)C2)cc1 [Compound 44, Ethyl 4-(((R)-3-(1H-indazol-5-ylamino)piperidin-1-yl)methyl)benzoate] |  |
| 4.1 |  |  | Cc1ccc(CN2CC[C@@H](Nc3cccc4cnccc34)C2)cc1OCCO [Compound 49, [2-(5-(((R)-3-(isoquinolin-5-ylamino)pyrrolidin-1-yl)methyl)-2-methylphenoxy)]ethanol] | concentration at 1 h ([1]; aqueous humor): 93.9 nM; concentration at 2 h ([1]; aqueous humor): 24 nM; concentration at 4 h ([1]; aqueous humor): 3.4 nM; concentration at 1 h [1, 3]: 846 nM; concentration at 2 h [1, 3]: 893 nM; concentration at 4 h [1, 3]: 65.7 nM |
| 19 | 6.7 |  | OCCOc1cccc(CN2CC[C@@H](Nc3cccc4cnccc34)C2)c1 [Compound 48, 2-(3-(((R)-3-(isoquinolin-5-ylamino)pyrrolidin-1-yl)methyl)phenoxy)ethanol] |  |
|  | 621 | 6060 | Cc1ccc(CN2CCC[C@@H](Nc3ccc4[nH]ncc4c3)C2)cc1OCCOC(=O)c1ccccc1 [Compound 26, 2-(5-(((R)-3-(1H-indazol-5-ylamino)piperidin-1-yl)methyl)-2-methylphenoxy)ethyl benzoate] |  |
|  | 1490 | 3820 | CC(C)CC(=O)OCCOc1cccc(CN2CC[C@@H](Nc3cccc4cnccc34)C2)c1 [Compound 18, 2-(3-((((R)-3-(isoquinolin-5-ylamino)pyrrolidin-1-yl)methyl)phenoxy)ethyl 3-methylbutanoate)] |  |
|  | 2300 |  | CC(=O)Nc1ccc(CN2CCC(Nc3cccc4cnccc34)C2)cc1 (stereo not drawn) [Compound 25, N-(4-((3-(isoquinolin-5-ylamino)pyrrolidin-1-yl)methyl)phenyl)acetamide] |  |
| 1010 | 155 |  | O=C(COc1cccc(CN2CCC[C@@H](Nc3ccc4[nH]ncc4c3)C2)c1)Nc1cccnc1 [Compound 33, 2-(3-(((R)-3-(1H-indazol-5-ylamino)piperidin-1-yl)methyl)phenoxy)-N-(pyridin-3-yl)acetamide] |  |
| 5650 | 1230 |  | O=C(OCCOc1cccc(CN2CCC[C@H](Nc3ccc4[nH]ncc4c3)C2)c1)c1ccccc1 [Compound 31, 2-(3-(((S)-3-(1H-indazol-5-ylamino)piperidin-1-yl)methyl)phenoxy)ethyl benzoate] |  |
| 1280 | 102 |  | O=C(COc1cccc(CN2CCC[C@@H](Nc3ccc4[nH]ncc4c3)C2)c1)N1CCOCC1 [Compound 34, 2-(3-(((R)-3-(1H-indazol-5-ylamino)piperidin-1-yl)methyl)phenoxy)-1-morpholinoethanone] |  |
|  | 1770 | 4810 | CC(C)(C)C(=O)OCCOc1cccc(CN2CC[C@@H](Nc3cccc4cnccc34)C2)c1 [Compound 20, 2-(3-(((R)-3-(isoquinolin-5-ylamino)pyrrolidin-1-yl)methyl)phenoxy)ethyl pivalate] |  |
|  | 369 | 1220 | CCOC(=O)OCCOc1cccc(CN2CC[C@@H](Nc3cccc4cnccc34)C2)c1 [Compound 17, 2-(3-(((R)-3-(isoquinolin-5-ylamino)pyrrolidin-1-yl)methyl)phenoxy)ethyl ethyl carbonate] |  |
| 45500 | 6180 |  | CCOC(=O)c1ccc(CN2CCC[C@H](Nc3ccc4[nH]ncc4c3)C2)cc1 [Compound 45, Ethyl 4-(((S)-3-(1H-indazol-5-ylamino)piperidin-1-yl)methyl)benzoate] |  |
| 2420 | 341 |  | CC(=O)NCc1cccc(CN2CCC[C@@H](Nc3ccc4[nH]ncc4c3)C2)c1 [Compound 42, N-((3-(((R)-3-(1H-indazol-5-ylamino)piperidin-1-yl)methyl)phenyl)methyl) acetamide] |  |
| 7080 | 3020 |  | O=C(OCCOc1cccc(CN2CCC[C@@H](Nc3ccc4[nH]ncc4c3)C2)c1)c1ccccc1 [Compound 32, 2-(3-((R)-3-(1H-indazol-5-ylamino)piperidin-1-yl)methyl)phenoxy)ethyl benzoate] |  |
|  | 512 | 1910 | O=C(OCCOc1cccc(CN2CC[C@@H](Nc3cccc4cnccc34)C2)c1)c1cccnc1 [Compound 21, 2-(3-(((R)-3-(isoquinolin-5-ylamino)pyrrolidin-1-yl)methyl)phenoxy)ethyl nicotinate] |  |

| Compound | IC50 (ROCK1) [nM] | IC50 (ROCK2) [nM] | IC50 (ROCK1; [2]) [nM] | other results |
| --- | --- | --- | --- | --- |
| tent-Butyl (3-((3-(1H-indazol-5-ylamino)piperidin-1-yl)methyl)phenyl)methyl carbamate [Compound 40] |  | 6590 |  |  |
| tert-Butyl (4-(((S)-3-(1H-indazol-5-ylamino)piperidin-1-yl)methyl)phenyl) methylcarbamate [Compound 43] |  | 4000 | 25400 |  |

— patent publication US20130131059A1, “METHOD FOR TREATING OPHTHALMIC DISEASES USING KINASE INHIBITOR COMPOUNDS IN PRODRUG FORMS” (INSPIRE PHARMACEUTICALS, INC., priority 2010, published 2013)
